Laboratory results reported in patent US20080155704A1, “Methods and Compositions for Determining in vivo Activity of BiP” (King's College London, priority 2006, published 2008).
Read-outs that look alike come from different tables or passages of the source.

What was measured:
T cells = experiment: Direct effect of BiP on T cells / PBMC: marker expression; format: cell-based, human
Description: CCR4 and CCR5 expression by T cells.
Immunofluorescent staining was performed as follows when required. Cells were suspended in immunofluorescent buffer (IF) (PBS/0.1% BSA/0.05% azide) washed and incubated for 10 mins on ice with normal human serum. After washing twice in IF buffer, saturating concentrations of fluorescein isothiocyanate (FITC)-, phycoerythrin (PE) or peridium chlorophyll (Per-CP)-conjugated monoclonal antibodies (mAb) recognizing human CD14, CD86, CD80, HLA-DR, CD11c, CD1a, CD83, CD40 and CD85j, (all from Becton Dickinson/PharMingen, Oxford, UK) were added singly or in combination, as stated in the text, to cells for 20 mins on ice. Cells were then washed twice in IF buffer and analysed. Isotype controls, IgG1 and IgG2a (Becton Dickinson, Oxford, UK) were used in parallel.
Another group of regulatory T cells recently described are characterised by the expression of CD8CD122.

[1] = test system: human peripheral blood mononuclear cells; experiment: Human PBMC injected intraperitoneally into SCID mice; format: in vivo, human cells in SCID mice
Description: Human peripheral blood mononuclear cells (50.106/mouse), either with concomitant BiP (100 μg/mouse) or with PBS/vehicle, were injected into the peritoneal cavity of SCID mice. After 11d the cells were flushed from the peritoneal cavity and investigated by flow cytometry. (A) Intracellular expression of IL-4 was measured 3 h post ex vivo stimulation with PMA (10 ng/ml) and ionomycin (1 μg/ml) in the presence of monensin. (B) surface expression of HLA-DR CD4+ cells. The mean and standard deviation of 3 experiments are shown
(§1) The biomarkers were investigated in two situations: 1) when 50.10^6 human peripheral blood mononuclear cells were injected intraperitoneally, with or without BiP (100 μg), into a mouse and the cells were harvested from the peritoneum 11 days later; or (2) BiP (200 μg) was injected intravenously into a mouse and the spleens and lymph nodes removed 11 days later.
In each of three experiments, two/three mice were injected either with BiP treated human peripheral blood mononuclear cells (hPBMC) (50.10^6/mouse) and or untreated hPBMC. The mice were sacrificed 11 days later, the peritoneal cavity washed out and the cells collected for immunofluorescence and flow cytometric analysis. The cells were particularly stained for TH2 markers and intracellular anti-inflammatory cytokines.
SCID mice were given an intraperitoneal injection of human PBMC (50.106/mouse) in the presence or absence of BiP (100 μg/mouse) and sacrificed 11d later when the peritoneum was washed out with PBS and the remaining cells collected for analysis. Cells were examined for the intracellular presence of IL-4 or IFNγ and for cell surface molecules such as HLA-DR and CD86.

[2] = test system: splenocytes and lymph node cells; experiment: Intravenous injection of BiP into DBA mice, splenocytes and lymph node cells analysed; format: in vivo, mouse
Description: as §1
Mice were sacrificed at the end of the experiment and the spleens and lymph nodes removed. The spleens and lymph nodes were then gently pushed through a fine mesh to produce a single cell suspension. The cells were then either set up in culture or stained as for human cells following the protocol below.
IF staining of mouse cells was as described for human cells above.
Mice were given a single dose of BiP and left for 11 days before they were sacrificed and their spleens and lymph nodes removed for analysis. The splenocytes and lymph node cells were pooled and used in immunofluorescence and flow cytometry studies. They were also set up in a simple recall antigen proliferation study to check that BiP had been successfully administered at time-point zero.
Cells were examined for: CD3, CD4, CD8, CD25, CD122, CCR4, intracellular CTLA-4 and cells actively producing IL-10 and interferon (IFN)γ.
Thus reduction of IFN (decreased IFN production) is an excellent marker of BiP function in vivo.

IL-8 gene = experiment: Affymetrix gene array of BiP treated monocytes; format: cell-based, human; details: monocytes cultured with BiP for 24 h compared with unstimulated monocytes
Description: This was confirmed in two Affymetrix™ gene arrays and also in an inflammatory cytokine gene array.
The transcription profiles of the BiP stimulated and unstimulated MO were generated using the Human GeneChip U95Av2 which simultaneously measures 12500 gene transcripts. To identify genes differentially expressed in the presence of BiP, comparisons were made between the transcription profiles obtained from the MO using the analysis software dChip version 1.2 (32).

IL-8 = IL-8 production by dendritic cells (cytometric bead array); format: cell-based, human; details: iDC and mDC, BiP 20 μg/ml, 7d culture (FIG. 7)
Description: In a series of experiments IL-8 was detected using cytometric bead array (Becton Dickinson) where the mean fluorescence intensity (MFI) is proportional to the concentration of cytokine.

[3] = test system: collagen-induced arthritis (CIA); details: administration of BiP to mice, literature reference, cited from earlier work
[4] = Example 4, hPBMC recovered from peritoneum after 11 days
[5] = BiP 200 μg/mouse i.v., 11 days, n=3

BiP: 78 kD endoplasmic reticulum chaperone protein as disclosed in WO 00/21995; recombinant human protein
CCR5 expression by T cells (T cells; PBMC incubated with BiP for four days (FIG. 4)): slightly downregulated | CCR4 expression by T cells (T cells; PBMC incubated with BiP for four days, three experiments (FIG. 4)): significantly raised | CD8CD122 expression (T cells; T cells after 7 days incubation with BiP, n=3): 75.6%±23.5% | cells with intracellular IFNγ [1, 4]: 23.5±4% | cells with intracellular IL-4 [1, 4]: 16.2±0.5% | cells with intracellular IL-5 [1, 4]: 29±7% | intracellular IL-4 in CD4+ cells ([1]; Example 10, BiP 100 μg/mouse, 11 days, ex vivo PMA and ionomycin 3 h, n=5): 38.2±20% | surface HLA-DR on CD4 T cells ([1]; Example 10, BiP 100 μg/mouse, 11 days, n=5): 50±6.2% | intracellular CTLA-4 ([2]; BiP 200 μg/mouse i.v., 11 days): Increased intracellular CTLA-4 | IL-10 producing cells [2, 5]: 6.1±1.3% | cells producing IFN gamma after stimulation by concanavalin A [2, 5]: 3.9±1.7% | % of CD8CD122+ cells ([2]; BiP 200 μg/mouse i.v., 11 days, pooled splenocytes and lymph node cells, n=3): 26.3±3.7% | IFN production by cells cultured overnight with con A ([2]; cells from mice given BiP 11 days previously (FIG. 5)): significant reduction in IFN production | IL-8 gene expression (IL-8 gene): downregulated the IL-8 gene | IL-8 production (MFI) in culture supernatants (IL-8): suppressed IL-8 production | effect on collagen-induced arthritis [3]: prevented or treated ongoing collagen-induced arthritis | effect on collagen-induced arthritis ([3]; listed as rhuBiP): prevented the induction of experimental arthritis
